target: Mushroom tyrosinase (Agaricus bisporus, UniProt O42713+Q00024+C7FF04+C7FF05); test: Inhibition of mushroom tyrosinase preincubated for 5 mins followed by addition of […] as substrate measured after 30 mins

Question: How did the IC50 turn out when `COc1ccc(C2SCC(=O)N2c2ccc(-c3ccc(N4C(=O)CSC4c4ccc(OC)cc4)cc3)cc2)cc1` (stereo not drawn) was run?
Answer: 4.41 µM

Question: With `O=C1CSC(c2ccc(O)cc2)N1c1ccc(-c2ccc(N3C(=O)CSC3c3ccc(O)cc3)cc2)cc1` (stereo not drawn) as the molecule, how does the IC50 read?
Answer: 342.52 µM

Question: `O=C1CSC(c2ccccc2)N1c1ccc(-c2ccc(N3C(=O)CSC3c3ccccc3)cc2)cc1` (stereo not drawn) was tested. Which IC50 did it give?
Answer: 21.61 µM

Question: Which IC50 does the source give for `Cc1cc(-c2ccc(N3C(=O)CSC3c3ccc(N(C)C)cc3)c(C)c2)ccc1N1C(=O)CSC1c1ccc(N(C)C)cc1` (stereo not drawn) here?
Answer: < 500 µM

Question: With `COc1cc(C2SCC(=O)N2c2ccc(-c3ccc(N4C(=O)CSC4c4ccc(O)c(OC)c4)c(C)c3)cc2C)ccc1O` (stereo not drawn) as the molecule, how does the IC50 read?
Answer: 2.81 µM

Question: Which IC50 does the source give for `COc1cc(C2SCC(=O)N2c2ccc(-c3ccc(N4C(=O)CSC4c4ccc(O)c(OC)c4)cc3)cc2)ccc1O` (stereo not drawn) here?
Answer: 2.41 µM

Question: With `O=C1CSC(c2ccccc2O)N1c1ccc(-c2ccc(N3C(=O)CSC3c3ccccc3O)cc2)cc1` (stereo not drawn) as the molecule, how does the IC50 read?
Answer: 0.61 µM

Question: For `Cc1cc(-c2ccc(N3C(=O)CSC3c3ccccc3)c(C)c2)ccc1N1C(=O)CSC1c1ccccc1` (stereo not drawn), which IC50 is on record?
Answer: 7.71 µM

— ChEMBL document CHEMBL4033656, “Organocatalyzed and mechanochemical solvent-free synthesis of novel and functionalized bis-biphenyl substituted thiazolidinones as potent tyrosinase inhibitors: SAR and molecular modeling studies” (Eur J Med Chem, 2017)
